Results taken from patent US20170158807A1, “EPOXY RESIN COMPOSITION FOR ELECTRONIC MATERIAL, CURED PRODUCT THEREOF AND ELECTRONIC MEMBER” (DIC CORPORATION, priority 2014, published 2017).

Key:
[1] = Melt viscosity at 150° C. (ASTM D4287, ICI viscometer method); assay type: physicochemical; details: measurement temperature 150° C.
Experimental: 1) Melt viscosity at 150° C.: measured by the following apparatus according to ASTM D4287.
Apparatus name: MODEL CV-1S manufactured by Codex

[2] = Viscosity of the liquid epoxy resin; assay type: physicochemical; details: epoxy resin as obtained
Experimental: In a flask equipped with a thermometer, a dropping funnel, a condenser tube, and a stirrer, while being purged with nitrogen gas, 43 g of 2,4,4′-trihydroxybiphenyl, 295 g of epichlorohydrin, and 103 g of n-butanol were charged and dissolved. After the temperature was raised to 40° C., 53 g of a 48% by mass sodium hydroxide aqueous solution was added over 8 hours. The temperature was then further raised to 50° C., and the mixture was allowed to react for further 1 hour. After the completion of the reaction, 83 g of water was added, the mixture was allowed to stand, and then the lower layer was disposed. After that, unreacted epichlorohydrin was removed by distillation at 150° C. under reduced pressure. To the obtained crude epoxy resin, 118 g of methyl isobutyl ketone was added to dissolve the epoxy resin. To the solution, 67 g of a 10% by mass sodium hydroxide aqueous solution was further added, the mixture was allowed to react at 80° C. for 2 hours, and then washing with water was repeated three times until the pH of the washing liquid became neutral. Next, the system was dehydrated by azeotropic distillation, and subjected to microfiltration, followed by removing the solvent by distillation under reduced pressure, whereby 63 g of 2,4,4′-triglycidyloxybiphenyl (A-1) which was the target epoxy resin was obtained. […]

SMILES	melt viscosity [1]	viscosity of liquid form [2]
c1c(OCC2CO2)cc(-c2cc(OCC3CO3)cc(OCC3CO3)c2)cc1OCC1CO1 (stereo not shown) [Example A-3, 3,3′,5,5′-tetraglycidyloxybiphenyl]	0.57 dPa·s	
c1cc(-c2cc(OCC3CO3)cc(OCC3CO3)c2)ccc1OCC1CO1 (stereo not shown) [Example A-2, 3,4′,5-triglycidyloxybiphenyl]	0.27 dPa·s	
c1cc(-c2ccc(OCC3CO3)cc2OCC2CO2)ccc1OCC1CO1 (stereo not shown) [Example A-1, 2,4,4′-triglycidyloxybiphenyl]	0.14 dPa·s	943 Pa-s
